Measured values from patent US9271993B2, “Treatment of bacterial infectious diseases” (priority 2010, dated 2016).
Read-outs that look alike come from different tables or passages of the source.

How the values were obtained:
[1] = test system: clinical isolates of M. tuberculosis; type: cell-based
[2] = test system: clinical isolates of multidrug-resistant M. tuberculosis

Question: Which results are given for `NCC[C@H](O)C(=O)N[C@@H]1C[C@H](N)[C@@H](O[C@H]2O[C@H](CN)[C@@H](O)[C@H](O)[C@H]2O)[C@H](O)[C@H]1O[C@H]1O[C@H](CO)[C@@H](O)[C@H](N)[C@H]1O` [Amikacin]?
Answer: Activity (resistant/susceptible) ([1]; strain 176949/08, 0.25 μg/ml): R; Activity (resistant/susceptible) ([1]; strain 176949/08, 1 μg/ml): S; Activity (resistant/susceptible) ([1]; strain 176949/08, 4 μg/ml): S; Activity (resistant/susceptible) ([1]; strain 177581/08, 0.25 μg/ml): R; Activity (resistant/susceptible) ([1]; strain 177581/08, 1 μg/ml): S; Activity (resistant/susceptible) ([1]; strain 177581/08, 4 μg/ml): S; Activity (resistant/susceptible) ([1]; strain 177958/08, 0.25 μg/ml): R; Activity (resistant/susceptible) ([1]; strain 177958/08, 1 μg/ml): S; Activity (resistant/susceptible) ([1]; strain 177958/08, 4 μg/ml): S; Activity (resistant/susceptible) ([1]; strain 178331/08, 0.25 μg/ml): R; Activity (resistant/susceptible) ([1]; strain 178331/08, 1 μg/ml): S; Activity (resistant/susceptible) ([1]; strain 178331/08, 4 μg/ml): S; Activity (resistant/susceptible) ([1]; strain 178557/08, 0.25 μg/ml): R; Activity (resistant/susceptible) ([1]; strain 178557/08, 1 μg/ml): S; Activity (resistant/susceptible) ([1]; strain 178557/08, 4 μg/ml): S

Question: For `CNC1C(OC2OC(CO)C(N)C(O)C2O)OC2CC(N)C(OC3C(N)CC(N)C(O)C3O)OC2C1O` (centres unmarked) [Apramycin], which “Activity (resistant/susceptible)” value ([1]; strain 176949/08, 0.25 μg/ml) is on record?
Answer: The value was “R”.

Question: What about the “Activity (resistant/susceptible)” value ([1]; strain 176949/08, 1 μg/ml) of the same compound?
Answer: The value was “S”.

Question: What about the “Activity (resistant/susceptible)” value ([1]; strain 176949/08, 4 μg/ml) of the same compound?
Answer: The value was “S”.

Question: What about the “Activity (resistant/susceptible)” value ([1]; strain 177581/08, 0.25 μg/ml) of the same compound?
Answer: Its value is “R”.

Question: What about the “Activity (resistant/susceptible)” value ([1]; strain 177581/08, 1 μg/ml) of the same compound?
Answer: Its value is “S”.

Question: What about the “Activity (resistant/susceptible)” value ([1]; strain 177581/08, 4 μg/ml) of the same compound?
Answer: Its value is “S”.

Question: And the “Activity (resistant/susceptible)” value ([1]; strain 177712/08, 0.25 μg/ml)?
Answer: Its value is “R”.

Question: What about the “Activity (resistant/susceptible)” value ([1]; strain 177712/08, 1 μg/ml) of the same compound?
Answer: Its value is “S”.

Question: And the “Activity (resistant/susceptible)” value ([1]; strain 177712/08, 4 μg/ml)?
Answer: The value was “S”.

Question: What about the “Activity (resistant/susceptible)” value ([1]; strain 177809/08, 0.25 μg/ml) of the same compound?
Answer: The value was “R”.

Question: What about the “Activity (resistant/susceptible)” value ([1]; strain 177809/08, 1 μg/ml) of the same compound?
Answer: The value was “S”.

Question: And the “Activity (resistant/susceptible)” value ([1]; strain 177809/08, 4 μg/ml)?
Answer: The value was “S”.

Question: And the “Activity (resistant/susceptible)” value ([1]; strain 177958/08, 0.25 μg/ml)?
Answer: The value was “R”.

Question: And the “Activity (resistant/susceptible)” value ([1]; strain 177958/08, 1 μg/ml)?
Answer: The value was “S”.

Question: And the “Activity (resistant/susceptible)” value ([1]; strain 177958/08, 4 μg/ml)?
Answer: The value was “S”.

Question: And the “Activity (resistant/susceptible)” value ([1]; strain 178122/08, 0.25 μg/ml)?
Answer: Its value is “R”.

Question: What about the “Activity (resistant/susceptible)” value ([1]; strain 178122/08, 1 μg/ml) of the same compound?
Answer: The value was “S”.

Question: And the “Activity (resistant/susceptible)” value ([1]; strain 178122/08, 4 μg/ml)?
Answer: Its value is “S”.

Question: What about the “Activity (resistant/susceptible)” value ([1]; strain 178242/08, 0.25 μg/ml) of the same compound?
Answer: Its value is “R”.

Question: What about the “Activity (resistant/susceptible)” value ([1]; strain 178242/08, 1 μg/ml) of the same compound?
Answer: Its value is “S”.

Question: What about the “Activity (resistant/susceptible)” value ([1]; strain 178242/08, 4 μg/ml) of the same compound?
Answer: Its value is “S”.

Question: What about the “Activity (resistant/susceptible)” value ([1]; strain 178331/08, 0.25 μg/ml) of the same compound?
Answer: The value was “R”.

Question: And the “Activity (resistant/susceptible)” value ([1]; strain 178331/08, 1 μg/ml)?
Answer: The value was “S”.

Question: And the “Activity (resistant/susceptible)” value ([1]; strain 178331/08, 4 μg/ml)?
Answer: Its value is “S”.

Question: What about the “Activity (resistant/susceptible)” value ([1]; strain 178557/08, 0.25 μg/ml) of the same compound?
Answer: The value was “R”.

Question: And the “Activity (resistant/susceptible)” value ([1]; strain 178557/08, 1 μg/ml)?
Answer: The value was “S”.

Question: And the “Activity (resistant/susceptible)” value ([1]; strain 178557/08, 4 μg/ml)?
Answer: Its value is “S”.

Question: What about the “Activity (resistant/susceptible)” value ([1]; strain 178594/08, 0.25 μg/ml) of the same compound?
Answer: Its value is “R”.

Question: And the “Activity (resistant/susceptible)” value ([1]; strain 178594/08, 1 μg/ml)?
Answer: The value was “S”.

Question: What about the “Activity (resistant/susceptible)” value ([1]; strain 178594/08, 4 μg/ml) of the same compound?
Answer: Its value is “S”.

Question: What about the “Activity (resistant/susceptible)” value ([2]; strain 186002/10, 0.25 μg/ml) of the same compound?
Answer: The value was “R”.

Question: And the “Activity (resistant/susceptible)” value ([2]; strain 186002/10, 1 μg/ml)?
Answer: Its value is “S”.

Question: What about the “Activity (resistant/susceptible)” value ([2]; strain 186002/10, 4 μg/ml) of the same compound?
Answer: Its value is “S”.

Question: And the “Activity (resistant/susceptible)” value ([2]; strain 186002/10, 10 μg/ml)?
Answer: The value was “S”.

Question: And the “Activity (resistant/susceptible)” value ([2]; strain 186005/09, 0.25 μg/ml)?
Answer: Its value is “R”.

Question: And the “Activity (resistant/susceptible)” value ([2]; strain 186005/09, 1 μg/ml)?
Answer: The value was “S”.

Question: What about the “Activity (resistant/susceptible)” value ([2]; strain 186005/09, 4 μg/ml) of the same compound?
Answer: Its value is “S”.

Question: And the “Activity (resistant/susceptible)” value ([2]; strain 186005/09, 10 μg/ml)?
Answer: Its value is “S”.

Question: What about the “Activity (resistant/susceptible)” value ([2]; strain 186010/09, 0.25 μg/ml) of the same compound?
Answer: The value was “R”.

Question: What about the “Activity (resistant/susceptible)” value ([2]; strain 186010/09, 1 μg/ml) of the same compound?
Answer: Its value is “S”.

Question: What about the “Activity (resistant/susceptible)” value ([2]; strain 186010/09, 4 μg/ml) of the same compound?
Answer: The value was “S”.

Question: What about the “Activity (resistant/susceptible)” value ([2]; strain 186010/09, 10 μg/ml) of the same compound?
Answer: Its value is “S”.

Question: And the “Activity (resistant/susceptible)” value ([2]; strain 186013/09, 0.25 μg/ml)?
Answer: The value was “R”.

Question: And the “Activity (resistant/susceptible)” value ([2]; strain 186013/09, 1 μg/ml)?
Answer: Its value is “S”.

Question: What about the “Activity (resistant/susceptible)” value ([2]; strain 186013/09, 4 μg/ml) of the same compound?
Answer: Its value is “S”.

Question: And the “Activity (resistant/susceptible)” value ([2]; strain 186013/09, 10 μg/ml)?
Answer: Its value is “S”.

Question: And the “Activity (resistant/susceptible)” value ([2]; strain 186014/09, 0.25 μg/ml)?
Answer: The value was “R”.

Question: What about the “Activity (resistant/susceptible)” value ([2]; strain 186014/09, 1 μg/ml) of the same compound?
Answer: The value was “S”.

Question: And the “Activity (resistant/susceptible)” value ([2]; strain 186014/09, 4 μg/ml)?
Answer: Its value is “S”.

Question: What about the “Activity (resistant/susceptible)” value ([2]; strain 186014/09, 10 μg/ml) of the same compound?
Answer: Its value is “S”.

Question: How did the “Activity (resistant/susceptible)” value ([1]; strain 176949/08, 0.25 μg/ml) turn out when `[H]/N=C(/N)N[C@H]1[C@H](O)[C@@H](O)[C@H](O[C@@H]2O[C@@H](C)[C@](O)(C=O)[C@H]2O[C@@H]2O[C@@H](CO)[C@H](O)[C@@H](O)[C@@H]2NC)[C@@H](N/C(N)=N\[H])[C@@H]1O` [Streptomycin] was run?
Answer: Its value is “S”.

Question: And the “Activity (resistant/susceptible)” value ([1]; strain 176949/08, 1 μg/ml)?
Answer: Its value is “S”.

Question: What about the “Activity (resistant/susceptible)” value ([1]; strain 176949/08, 4 μg/ml) of the same compound?
Answer: Its value is “S”.

Question: What about the “Activity (resistant/susceptible)” value ([1]; strain 177581/08, 0.25 μg/ml) of the same compound?
Answer: The value was “S”.

Question: And the “Activity (resistant/susceptible)” value ([1]; strain 177581/08, 1 μg/ml)?
Answer: The value was “S”.

Question: What about the “Activity (resistant/susceptible)” value ([1]; strain 177581/08, 4 μg/ml) of the same compound?
Answer: Its value is “S”.

Question: What about the “Activity (resistant/susceptible)” value ([1]; strain 177958/08, 0.25 μg/ml) of the same compound?
Answer: Its value is “R”.

Question: And the “Activity (resistant/susceptible)” value ([1]; strain 177958/08, 1 μg/ml)?
Answer: The value was “S”.

Question: What about the “Activity (resistant/susceptible)” value ([1]; strain 177958/08, 4 μg/ml) of the same compound?
Answer: The value was “S”.

Question: And the “Activity (resistant/susceptible)” value ([1]; strain 178331/08, 0.25 μg/ml)?
Answer: Its value is “R”.

Question: And the “Activity (resistant/susceptible)” value ([1]; strain 178331/08, 1 μg/ml)?
Answer: The value was “S”.

Question: And the “Activity (resistant/susceptible)” value ([1]; strain 178331/08, 4 μg/ml)?
Answer: Its value is “S”.

Question: What about the “Activity (resistant/susceptible)” value ([1]; strain 178557/08, 0.25 μg/ml) of the same compound?
Answer: The value was “R”.

Question: What about the “Activity (resistant/susceptible)” value ([1]; strain 178557/08, 1 μg/ml) of the same compound?
Answer: Its value is “S”.

Question: And the “Activity (resistant/susceptible)” value ([1]; strain 178557/08, 4 μg/ml)?
Answer: Its value is “S”.
